From paper PMC10839085, “Screening and evaluation of metabolites binding PRAS40 from Erxian decoction used to treat spinal cord injury” (Frontiers in Pharmacology, 2024) come the findings set out here.

Like-named read-outs stand apart in the source and are kept apart here.

For assay [1], the target named is T1, PRAS40 (Homo sapiens, UniProt Q96B36).
T1 construct: gene AKT1S1; His-tagged, purchased from Genscript (Nanjing); UniProt Q96B36 (human) given only for the docking receptor
Put plainly: ligand fishing from Erxian decoction with immobilized PRAS40, LC-MS identification. The format is binding. As to conditions: PBS-Tween, pH 7.4, eluted from Ni-NTA beads, identified from extract by MS only.

For assay [2], the target named is T1, PRAS40. Put plainly: isothermal titration calorimetry. The format is binding. An excerpt: isothermal titration calorimetry on PRAS40
On the technique in general: ITC needs no label: the signal is the heat of the interaction.

The mark [3] stands for this setting: read-out: Ka (M^-1) (converted).

Turning to `O=[N+]([O-])c1ccc(O)cc1` [4-nitrophenol], the “ligand fishing from Erxian decoction with immobilized PRAS40, LC-MS identificati” value (“ligand fishing from Erxian decoction” for short) on PRAS40 [1] is given as “The immobilized PRAS40 isolated indole, 4-nitrophenol, terephthalic acid”.

On to `c1ccc2[nH]ccc2c1` [indole], for which the Kd on PRAS40 [2] (setting [3]) and on PRAS40 [2] (read-out: Kd) was 2.62 µM throughout.

As for `COc1cc2c(cc1OC)-c1cc3ccc(OC)c(OC)c3c[n+]1CC2` [palmatine], the Kd on PRAS40 [2] (setting [3]) was 0.352 µM; at PRAS40 [2] (read-out: Kd), 0.353 µM.

As to `COc1cc(/C=C/C=O)cc(OC)c1O` [sinapinaldehyde], the “ligand fishing from Erxian decoction” value at PRAS40 [1] (named as PAINS by the paper) was “palmatine, sinapinaldehyde, and 3-chloroaniline as the potential ligands binding to PRAS40”.

In the case of `O=C(O)c1ccc(C(=O)O)cc1` [terephthalic acid], the “ligand fishing from Erxian decoction” value at PRAS40 [1] was “The immobilized PRAS40 isolated indole, 4-nitrophenol, terephthalic acid”.
